Source: patent publication US11975099B2, “Ethanol foam sclerosing agent for treating vascular anomalies and preparation method thereof” (QILU HOSPITAL OF SHANDONG UNIVERSITY, priority 2019, dated 2024)

Columns and labels:
rabbit ear edge = assay: Animal experiment: rabbit ear edge injection; type: in vivo; conditions: 0.5 mL injected, New Zealand white rabbits
Description: Animal experiment: A first experimental group: the experimental subjects were 20 New Zealand white rabbits with the body weight of 1.5 kg, injected with 0.5 mL of absolute ethanol solution. A second experimental group: the experimental subjects were 20 New Zealand white rabbits with the body weight of 1.5 kg, injected with 0.5 mL of the foam sclerosing agent of Embodiment 1. The edges of ears of the experimental subjects in the first experimental group and the second experimental group were all intact before the experiment.

[1] = Plasma experiment (protein coagulation in anticoagulant blood); conditions: added to 1 mL fresh human anticoagulant blood in test tube
Description: Plasma experiment: A plasma experiment was performed using absolute ethanol and the sclerosing agent solution of Embodiment 1. As shown in A of FIG. 3, 1 mL of fresh human anticoagulant blood was taken. As shown in C of FIG. 3, absolute ethanol was added to a test tube, and as shown in B of FIG. 3, the sclerosing agent solution of Embodiment 1 was added to a test tube.

## CCO [absolute ethanol]
Rabbit ear edge; 3 days
  reaction of ear edge 3 days after the injection: the whole ear has obvious hematoma
Rabbit ear edge; 7 days
  reaction of ear edge 7 days after the injection: the swelling is reduced
Rabbit ear edge; 25 days
  reaction of ear edge 25 days after the injection: the local blood vessels and some normal tissues are destroyed, resulting in tissue defect of the rabbit ear edge
Rabbit ear edge; immediately after injection
  reaction of ear edge immediately after the injection: extensive and large-area hematoma appears on the ear edge immediately
[1]
  coagulation of the protein in the plasma: coagulated the protein in the plasma
